Reference: US20060069132A1, “Azolecarboxamide herbicides” (priority 2004, published 2006)

What was measured:
pigweed = test: Test B pre-/postemergence herbicide test; format: in vivo, Amaranthus retroflexus
How it was run: (§1)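 Evaluation is visual, comparing treated with control plants on a scale where 0 means no effect and 100 means full control. Treatments were preemergence, or postemergence on seedlings 2–18 cm tall, and held 13–15 days in the greenhouse.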

large crabgrass = test: Test B pre-/postemergence herbicide test; format: in vivo, Digitaria sanguinalis
How it was run: as §1

wild oat = test: Test B postemergence herbicide test; format: in vivo, Avena fatua
How it was run: (§2)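 Plants grow to 1- to 4-leaf stage (2–18 cm) for postemergence spraying, or to 2-leaf stage for the paddy test. Formulated compound is applied. Greenhouse holding lasts 13–15 days. Response is scored visually relative to controls, 0 no effect to 100 complete control; a dash means no result.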

morningglory = test: Test B pre-/postemergence herbicide test; format: in vivo, Ipomoea coccinea
How it was run: (§3)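 Visual rating, 0 (no effect) to 100 (complete control), versus untreated controls after 13–15 d in greenhouse. Pre- and postemergence applications (postemergence plants 2–18 cm, 1–4 leaves); flooded paddy arm at 2-leaf stage. Compounds in non-phytotoxic solvent plus surfactant.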

velvetleaf = test: Test B pre-/postemergence herbicide test; format: in vivo, Abutilon theophrasti
How it was run: as §1

[1] = tested on: small flower umbrella sedge; test: Test B flooded paddy test; format: in vivo, Cyperus difformis; settings: 1000 g ai/ha, scale 0 to 100 (0 no effect, 100 complete control)
How it was run: (§4)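 Visual ratings, 0 (no effect) to 100 (complete control), made versus controls after 13–15 d greenhouse. Paddy plants treated at 2-leaf stage; postemergence plants at 1- to 4-leaf stage, 2–18 cm tall.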

barnyardgrass [2] = test: Test B pre-/postemergence herbicide test; format: in vivo, Echinochloa crus-galli
How it was run: as §3

rice = test: Test B flooded paddy test; format: in vivo, Oryza sativa; settings: 1000 g ai/ha, scale 0 to 100 (0 no effect, 100 complete control)
How it was run: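 Each value is a visual 0–100 response rating taken against controls 13 to 15 days after treatment in the greenhouse. Plants received formulated chemical postemergence at the 1- to 4-leaf stage or, in flooded paddy, at the 2-leaf stage.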

Surinam grass = test: Test B pre-/postemergence herbicide test; format: in vivo, Urochloa decumbens
How it was run: as §1

barnyardgrass [3] = test: Test B flooded paddy test; format: in vivo, Echinochloa crus-galli; settings: 1000 g ai/ha, scale 0 to 100 (0 no effect, 100 complete control)
How it was run: as §4

giant foxtail = test: Test B pre-/postemergence herbicide test; format: in vivo, Setaria faberi
How it was run: as §1

ducksalad = test: Test B flooded paddy test; format: in vivo, Heteranthera limosa; settings: 1000 g ai/ha, scale 0 to 100 (0 no effect, 100 complete control)
How it was run: as §4

wheat = test: Test B postemergence herbicide test; format: in vivo, Triticum aestivum; design: key to Wheat plant response rating: 0 = no effect, 100 = complete control
How it was run: as §2

cocklebur = test: Test B pre-/postemergence herbicide test; format: in vivo, Xanthium strumarium
How it was run: as §3

lambsquarters = test: Test B pre-/postemergence herbicide test; format: in vivo, Chenopodium album
How it was run: as §1

[4] = 125 g ai/ha, visual rating, scale 0 (no effect) to 100 (complete control), postemergence
[5] = Postemergence, 500 g ai/ha, scale 0 (no effect) to 100 (complete control)
[6] = 125 g ai/ha; 0 is no effect, 100 is complete control; preemergence
[7] = 125 g ai/ha; visual rating, scale 0 (no effect) to 100 (complete control); postemergence
[8] = postemergence, 500 g ai/ha; scale 0 to 100, 0 is no effect, 100 is complete control
[9] = 125 g ai/ha, 0 is no effect, 100 is complete control, preemergence
[10] = 125 g ai/ha, 0 = no effect, 100 = complete control, preemergence
[11] = 500 g ai/ha, visual rating, 0 = no effect, 100 = complete control, preemergence
[12] = postemergence, 500 g ai/ha, scale 0 to 100, 0 is no effect, 100 is complete control
[13] = 125 g ai/ha; 0 = no effect, 100 = complete control; preemergence
[14] = 500 g ai/ha; visual rating, 0 = no effect, 100 = complete control; preemergence
[15] = 500 g ai/ha, visual rating 0-100, 0 no effect, 100 complete control, preemergence
[16] = Postemergence, 500 g ai/ha, visual rating after 13 to 15 days, scale 0 (no effect) to 100 (complete control)
[17] = postemergence, 125 g ai/ha, visual rating, scale 0 (no effect) to 100 (complete control)
[18] = preemergence, 125 g ai/ha, 0 to 100 scale, 0 is no effect, 100 is complete control
[19] = 500 g ai/ha; visual rating 0-100, 0 no effect, 100 complete control; preemergence
[20] = Postemergence, 500 g ai/ha; visual rating after 13 to 15 days, scale 0 (no effect) to 100 (complete control)
[21] = postemergence, 125 g ai/ha; visual rating, scale 0 (no effect) to 100 (complete control)
[22] = preemergence, 125 g ai/ha; 0 to 100 scale, 0 is no effect, 100 is complete control

For `CCc1nn(C(C)(C)CC)nc1C(=O)Nc1cccc(C(=O)N(C)C)c1` [Compound 372], the “Pigweed plant response rating” value (pigweed; [4]) was 40, the “Pigweed plant response rating” value (pigweed; [5]) was 80 and the “Plant response rating (0 to 100 scale), Crabgrass, Large” value (large crabgrass; [6]) was 80. The “Crabgrass, Large plant response rating” value (large crabgrass; [7]) was 10, the “Crabgrass, Large plant response rating” value (large crabgrass; [8]) was 20 and the “Oat, Wild plant response rating” value (wild oat; [4]) was 0. The “Oat, Wild plant response rating” value (wild oat; [5]) was 30, the “Plant response rating (0 to 100 scale), Morningglory” value (morningglory; [9]) was 10 and the “Morningglory plant response rating” value (morningglory; [4]) was 20. For the same compound, the “Morningglory plant response rating” value (morningglory; [5]) was 60, the “Plant response rating (0 to 100 scale), Velvetleaf” value (velvetleaf; [9]) was 10 and the “Velvetleaf plant response rating” value (velvetleaf; [4]) was 10. The “Velvetleaf plant response rating” value (velvetleaf; [5]) was 30, the “Sedge, Umbrella plant response rating” value [1] was 90 and the “Plant response rating (0 to 100 scale), Barnyardgrass” value (barnyardgrass [2]; [6]) was 80. The “Barnyardgrass plant response rating” value (barnyardgrass [2]; [7]) was 10, the “Barnyardgrass plant response rating” value (barnyardgrass [2]; [8]) was 60 and the “Rice plant response rating” value (rice) was 90. The “Plant response rating (0 to 100 scale), Surinam Grass” value (Surinam grass; [9]) was 50, the “Surinam Grass plant response rating” value (Surinam grass; [4]) was 10 and the “Surinam Grass plant response rating” value (Surinam grass; [5]) was 10. For the same compound, the “Barnyardgrass plant response rating” value (barnyardgrass [3]) was 90, the “Plant response rating (0 to 100 scale), Foxtail, Giant” value (giant foxtail; [6]) was 60 and the “Foxtail, Giant plant response rating” value (giant foxtail; [7]) was 30. For the same compound, the “Foxtail, Giant plant response rating” value (giant foxtail; [8]) was 50, the “Ducksalad plant response rating” value (ducksalad) was 90 and the “Wheat plant response rating” value (wheat; [4]) was 0. For the same compound, the “Wheat plant response rating” value (wheat; 500 g ai/ha, scale 0 to 100, 0 no effect, 100 complete control, preemergence) was 90, the “Wheat plant response rating” value (wheat; [5]) was 10 and the “Plant response rating (0 to 100 scale), Cocklebur” value (cocklebur; [6]) was 10. For the same compound, the “Cocklebur plant response rating” value (cocklebur; [7]) was 20, the “Cocklebur plant response rating” value (cocklebur; [8]) was 30 and the “Plant response rating (0 to 100 scale), Lambsquarters” value (lambsquarters; [9]) was 100. For the same compound, the “Lambsquarters plant response rating” value (lambsquarters; [4]) was 40 and the “Lambsquarters plant response rating” value (lambsquarters; [5]) was 90.
For `CCn1nc(C2(C)CC2)cc1C(=O)Nc1cccc(C(=O)N2CC=CC2)c1` [Compound 304], the “Pigweed plant response rating (0 to 100 scale)” value (pigweed; [10]) was 100, the “Pigweed plant response rating” value (pigweed; [4]) was 90 and the “Plant response rating, Pigweed” value (pigweed; [11]) was 100. The “Pigweed plant response rating” value (pigweed; [12]) was 90, the “Crabgrass, Large plant response rating (0 to 100 scale)” value (large crabgrass; [13]) was 10 and the “Crabgrass, Large plant response rating” value (large crabgrass; [7]) was 10. The “Plant response rating, Crabgrass, Large” value (large crabgrass; [14]) was 100, the “Crabgrass, Large plant response rating” value (large crabgrass; [8]) was 10 and the “Oat, Wild plant response rating” value (wild oat; [4]) was 30. The “Oat, Wild plant response rating” value (wild oat; [12]) was 40, the “Morningglory plant response rating (0 to 100 scale)” value (morningglory; [10]) was 10 and the “Morningglory plant response rating” value (morningglory; [4]) was 100. For the same compound, the “Plant response rating, Morningglory” value (morningglory; [11]) was 10, the “Morningglory plant response rating” value (morningglory; [12]) was 100 and the “Velvetleaf plant response rating” value (velvetleaf; [4]) was 10. For the same compound, the “Plant response rating, Velvetleaf” value (velvetleaf; [11]) was 100, the “Velvetleaf plant response rating” value (velvetleaf; [12]) was 60 and the “Sedge, Umbrella plant response rating” value [1] was 90. The “Barnyardgrass plant response rating (0 to 100 scale)” value (barnyardgrass [2]; [13]) was 10, the “Barnyardgrass plant response rating” value (barnyardgrass [2]; [7]) was 20 and the “Plant response rating, Barnyardgrass” value (barnyardgrass [2]; [14]) was 70. For the same compound, the “Barnyardgrass plant response rating” value (barnyardgrass [2]; [8]) was 20, the “Rice plant response rating” value (rice) was 90 and the “Surinam Grass plant response rating (0 to 100 scale)” value (Surinam grass; [10]) was 10. The “Surinam Grass plant response rating” value (Surinam grass; [4]) was 0, the “Plant response rating, Surinam Grass” value (Surinam grass; [11]) was 70 and the “Surinam Grass plant response rating” value (Surinam grass; [12]) was 10. The “Barnyardgrass plant response rating” value (barnyardgrass [3]) was 80, the “Foxtail, Giant plant response rating (0 to 100 scale)” value (giant foxtail; [13]) was 10 and the “Foxtail, Giant plant response rating” value (giant foxtail; [7]) was 30. The “Plant response rating, Foxtail, Giant” value (giant foxtail; [14]) was 90, the “Foxtail, Giant plant response rating” value (giant foxtail; [8]) was 30 and the “Ducksalad plant response rating” value (ducksalad) was 90. The “Wheat plant response rating” value (wheat; [4]) was 10, the “Wheat plant response rating” value (wheat; [12]) was 20 and the “Cocklebur plant response rating (0 to 100 scale)” value (cocklebur; [13]) was 0. The “Cocklebur plant response rating” value (cocklebur; [7]) was 0, the “Plant response rating, Cocklebur” value (cocklebur; [14]) was 0 and the “Cocklebur plant response rating” value (cocklebur; [8]) was 100. The “Lambsquarters plant response rating (0 to 100 scale)” value (lambsquarters; [10]) was 100, the “Lambsquarters plant response rating” value (lambsquarters; [4]) was 80 and the “Plant response rating, Lambsquarters” value (lambsquarters; [11]) was 100. For the same compound, the “Lambsquarters plant response rating” value (lambsquarters; [12]) was 90.
In the case of `C=CCn1nc(C(C)(C)C)cc1C(=O)Nc1cccc(C(C)=NO)c1` [Compound 117], the “Plant response rating, Pigweed” value (pigweed; [15]) was 90, the “Plant response rating, Pigweed” value (pigweed; [16]) was 90 and the “Pigweed plant response rating” value (pigweed; [17]) was 50. For the same compound, the “Plant response rating, Pigweed” value (pigweed; [18]) was 60, the “Plant response rating, Crabgrass, Large” value (large crabgrass; [19]) was 100 and the “Plant response rating, Crabgrass, Large” value (large crabgrass; [20]) was 30. For the same compound, the “Crabgrass, Large plant response rating” value (large crabgrass; [21]) was 10, the “Plant response rating, Crabgrass, Large” value (large crabgrass; [22]) was 90 and the “Plant response rating, Oat, Wild” value (wild oat; [16]) was 20. The “Oat, Wild plant response rating” value (wild oat; [17]) was 10, the “Plant response rating, Morningglory” value (morningglory; [15]) was 60 and the “Plant response rating, Velvetleaf” value (velvetleaf; [15]) was 70. The “Plant response rating, Velvetleaf” value (velvetleaf; [16]) was 50, the “Velvetleaf plant response rating” value (velvetleaf; [17]) was 20 and the “Plant response rating, Velvetleaf” value (velvetleaf; [18]) was 60. For the same compound, the “Sedge, Umbrella plant response rating” value ([1]; visual rating, 13 to 15 days) was 90, the “Plant response rating, Barnyardgrass” value (barnyardgrass [2]; [19]) was 90 and the “Plant response rating, Barnyardgrass” value (barnyardgrass [2]; [20]) was 30. The “Barnyardgrass plant response rating” value (barnyardgrass [2]; [21]) was 20, the “Plant response rating, Barnyardgrass” value (barnyardgrass [2]; [22]) was 60 and the “Rice plant response rating” value (rice; visual rating, 13 to 15 days) was 50. For the same compound, the “Plant response rating, Surinam Grass” value (Surinam grass; [15]) was 60, the “Plant response rating, Surinam Grass” value (Surinam grass; [16]) was 40 and the “Surinam Grass plant response rating” value (Surinam grass; [17]) was 30. The “Plant response rating, Surinam Grass” value (Surinam grass; [18]) was 30, the “Barnyardgrass plant response rating” value (barnyardgrass [3]; visual rating, 13 to 15 days) was 70 and the “Plant response rating, Foxtail, Giant” value (giant foxtail; [19]) was 80. For the same compound, the “Plant response rating, Foxtail, Giant” value (giant foxtail; [20]) was 20, the “Foxtail, Giant plant response rating” value (giant foxtail; [21]) was 10 and the “Plant response rating, Foxtail, Giant” value (giant foxtail; [22]) was 20. For the same compound, the “Ducksalad plant response rating” value (ducksalad; visual rating, 13 to 15 days) was 80, the “Plant response rating, Wheat” value (wheat; [16]) was 20 and the “Wheat plant response rating” value (wheat; [17]) was 10. For the same compound, the “Plant response rating, Cocklebur” value (cocklebur; [19]) was 30, the “Plant response rating, Cocklebur” value (cocklebur; [20]) was 90 and the “Cocklebur plant response rating” value (cocklebur; [21]) was 30. For the same compound, the “Plant response rating, Cocklebur” value (cocklebur; [22]) was 20, the “Plant response rating, Lambsquarters” value (lambsquarters; [15]) was 100 and the “Plant response rating, Lambsquarters” value (lambsquarters; [16]) was 90. The “Lambsquarters plant response rating” value (lambsquarters; [17]) was 60 and the “Plant response rating, Lambsquarters” value (lambsquarters; [18]) was 90.
